Source: ChEMBL document CHEMBL2321756, “From a cytotoxic agent to the discovery of a novel antimalarial agent” (Bioorg Med Chem Lett, 2013)

Assays:
[1] = Apparent permeability across apical to basolateral side in human Caco2/TC7 cells after 2 hrs; type: ADME, cell-based; conditions: Caco-2
[2] = Apparent permeability across apical to basolateral side in human Caco2/TC7 cells at 50 uM after 2 hrs; type: ADME, cell-based; conditions: Caco-2
Plasmodium falciparum [3] = assay: Antimalarial activity against Plasmodium falciparum C235 containing mdr1 transporter gene assessed as growth inhibition after 72 hrs by SYBR Green 1-based fluorescence assay; type: functional, organism-based; conditions: C235, MDR1, 72 h
Erythrocyte [4] = assay: Reduction of glutathione level in Wistar rat RBC at 25 ug/mL measured at 120 mins relative to untreated control; type: functional; set-up: scale not given: the % may be the effect or the level left
Erythrocyte [5] = assay: Reduction of glutathione level in Wistar rat RBC at 25 ug/mL measured at 5 mins relative to untreated control; type: functional; set-up: scale not given: the % may be the effect or the level left
Plasmodium falciparum [6] = assay: Antimalarial activity against Plasmodium falciparum D6 assessed as growth inhibition after 72 hrs by SYBR Green 1-based fluorescence assay; type: functional, organism-based; conditions: D6, 72 h
Plasmodium falciparum [7] = assay: Selectivity ratio of IC50 for Plasmodium falciparum C235 to IC50 for Plasmodium falciparum D6; type: functional
Erythrocyte [8] = assay: Reduction of glutathione level in Wistar rat RBC at 25 ug/mL measured at 60 mins relative to untreated control; type: functional; set-up: scale not given: the % may be the effect or the level left
[9] = Drug uptake in Wistar rat RBC at 25 ug/mL up to 2 hrs; type: ADME, cell-based; conditions: erythrocyte
[10] = Drug uptake in Wistar rat RBC at 25 ug/mL; type: ADME, cell-based; conditions: erythrocyte
[11] = Metabolic stability in human Caco2/TC7 cells at 50 uM up to 2 hrs; type: ADME, cell-based; conditions: caco-2, 2 h
Erythrocyte [12] = assay: Reduction of glutathione level in Wistar rat RBC at 25 ug/mL measured at 30 mins relative to untreated control; type: functional; set-up: scale not given: the % may be the effect or the level left
Erythrocyte [13] = assay: Reduction of glutathione level in Wistar rat RBC at 25 ug/mL measured at 15 mins relative to untreated control; type: functional; set-up: scale not given: the % may be the effect or the level left
Erythrocyte [14] = assay: Reduction of glutathione level in Wistar rat RBC at 25 ug/mL measured at 90 mins relative to untreated control; type: functional; set-up: scale not given: the % may be the effect or the level left

| Compound | Papp A→B at 2 h [1] [×10⁻⁶ cm/s] | Papp A→B at 2 h, 50 µM [2] [×10⁻⁶ cm/s] | IC50 (Plasmodium falciparum [3]) [nM] | Activity (Erythrocyte [4]) [%] | Activity (Erythrocyte [5]) [%] | IC50 (Plasmodium falciparum [6]) [nM] | Ratio IC50 (Plasmodium falciparum [7]) | Activity (Erythrocyte [8]) [%] | Drug uptake [9] [%] | Drug uptake [10] [%] | Stability [11] | Activity (Erythrocyte [12]) [%] | Activity (Erythrocyte [13]) [%] | Activity (Erythrocyte [14]) [%] |
| --- | --- | --- | --- | --- | --- | --- | --- | --- | --- | --- | --- | --- | --- | --- |
| COCCc1ccc(OCC(O)CNC(C)C)cc1 (stereo not given) [METOPROLOL] | 29.9 | – | – | – | – | – | – | – | – | – | – | – | – | – |
| Cl.O=C1/C(=C/c2ccc(Cl)cc2)CN(C(=O)c2ccc(OCCN3CCOCC3)cc2)C/C1=C\c1ccc(Cl)cc1 | – | 1.2 | 1970 | 10.9 | 12.6 | 600 | 3.3 | 8.95 | 80 | 75 | Stable | 12.9 | 12.3 | 7.51 |
| O[C@@H](c1cc(C(F)(F)F)nc2c(C(F)(F)F)cccc12)[C@H]1CCCCN1 [(S,R)-MEFLOQUINE] | – | – | 50 | – | – | – | – | – | – | – | – | – | – | – |
